Here are results for four molecules from patent US20130272978A1, “DIHYDROXYACETONE MONOETHERS” (MERCK PATENT GMBH, priority 2010, published 2013).

Data set [1] is described as follows: Solubility in cosmetic oils (Finsolv TN). Format: physicochemical.
A short description of data set [2]: Tanning experiment (liquid skin model). The conditions noted are these: for L* (Lab values after 24 hours) / a* (Lab values after 24 hours) / b* (Lab values after 24 hours): 1 mmol substance + 1 mmol DL-lysine in ethylene glycol/water, pH=7, after 24 h, UV-VIS spectrometer; for Kinetics of tanning reaction compared with DHA: documented via photos; for Coloration/shade compared with DHA: from Lab values after 24 h; for Speed of tanning reaction relative to DHA: optical assessment. The procedure: Tanning Experiment (Liquid Skin Model)
1 mmol of the self-tanner substance to be tested are dissolved in 94 ml of ethylene glycol and 6 ml of water (potassium hydrogenphthalate-buffered to pH=7) with 146 mg of DL-lysine (1 mmol) and stirred for 24 hrs. (=liquid skin model). The kinetics are documented via photos. After 24 h, the colour values (L*a*b* system) of the solution are measured by UV-VIS spectrometer (Varian Cary-50) in order to be able to assess the effect on the skin tones.

On to `O=C(CO)COCc1ccccc1` [MBDE, 1-benzyloxy-3-hydroxypropan-2-one], for which the “Solubility in cosmetic oil” value in data set [1] came to 0.24%. In data set [2], the “L* (Lab values after 24 hours)” value is 42.6, the “a* (Lab values after 24 hours)” value is given as 32.0, the “b* (Lab values after 24 hours)” value amounted to 70.0 and the “Kinetics of tanning reaction compared with DHA” value is “faster tanning reaction than DHA”. In addition, in data set [2], the “Coloration/shade compared with DHA” value is listed as “strong shift towards a redder shade” and the “Speed of tanning reaction relative to DHA” value was “doubling of the speed”.
Consider `O=C(CO)COCC1CCCCC1` [MCHMDE, monocyclohexylmethyl-DHA ether], for which the “Solubility in cosmetic oil” value in data set [1] was found to be 0.97%. In data set [2], the “L* (Lab values after 24 hours)” value amounted to 45.3, the “a* (Lab values after 24 hours)” value was determined as 18.2, the “b* (Lab values after 24 hours)” value is reported as 50.5 and the “Coloration/shade compared with DHA” value is reported as “strong shift towards a more yellow shade”.
The matching figures for `CCCCC(CC)COCC(=O)CO` (centres unmarked) [MEHDE, mono-2-ethylhexyl-DHA ether]: 2.25%, 86.5, 4.7, 24.3 and “paler coloration”.
Turning to `CCCCCCCOCC(=O)CO` [MHDE, 1-heptyloxy-3-hydroxypropan-2-one], in data set [2], the “L* (Lab values after 24 hours)” value is 0.1, the “a* (Lab values after 24 hours)” value stood at 0.4, the “b* (Lab values after 24 hours)” value was found to be 0.2 and the “Kinetics of tanning reaction compared with DHA” value is listed as “faster tanning reaction than DHA”. Also, in data set [2], the “Coloration/shade compared with DHA” value is given as “darker coloration” and the “Speed of tanning reaction relative to DHA” value is reported as “doubling of the speed”.
